Reference: publication PMC10155203 (Molecular Pharmaceutics, 2023)
Several values for one entry are separate records, joined by “and”; a condition that tells them apart may be missing. Equal values may be shown once. Read-outs that look alike come from different tables or passages of the source.

Experiments:
[1] = Study 1: food effect clinical study, single oral dose of encorafenib 100 mg, fasted vs high-fat meal, plasma PK and safety; assay type: in vivo, human; settings: for AUC(0-inf) / AUC(0-t) / Cmax: GM (GCV%); for half-life: arithmetic mean ± SD; for Vd/F / CL/F: mean ± SD; for Vd/F: read-out: Vz/F; for Tmax: median (range)
Experimental: Both studies were conducted at the Celerion Clinical Research Unit in Lincoln, NE. The trial protocols and informed consent documentation were reviewed and approved by the institutional review boards at the center. These studies were conducted in compliance with the ethical principles originating in or derived from the Declaration of Helsinki and in compliance with all International Council for Harmonization Good Clinical Practice Guideline.
In study 1, participants were randomized to 2 treatment sequences. Participants were either fasted or fed a high-fat meal on day 1 of the first period and received the alternate treatment on day 1 of the second period. Each dose was separated by a washout period of at least 7 days. […] The high-fat breakfast consisted of 2 slices of buttered toast, 2 fried eggs, 2 strips of bacon, 4 oz. of hash brown potatoes, and 240 mL of whole milk. This breakfast met the criteria specified in the FDA guidance for a high-fat meal.[6] […] Water (except water provided with each dosing) was restricted 1 h prior to and 1 h after each study drug administration but was allowed ad libitum at all other times. Participants were housed from day −1 of each period until after the 36 h blood draw and/or study procedures on day 2. Participants returned to the clinical research unit for the 48 and 72 h blood draws.
Additionally, participants were instructed not to crush, split, or chew the study drug.
Serial blood samples for PK were collected in Study 1 predose and at 0.25, 0.5, 1, 1.5, 2, 2.5, 3, 3.5, 4, 5, 6, 8, 10, 12, 24, 36, and 72 h after the day 1 dose in each period.
The actual sample collection times were used for the PK parameter analysis.
The overall safety profile was characterized by laboratory test abnormalities, physical examination, vital signs, ECGs, and AEs. […] Triplicate ECGs were also measured at the end of the studies or upon early termination.
These were back-transformed to obtain the geometric LSMs and ratios of LSMs (geometric mean ratios [GMRs]), and the corresponding 90% CIs of the GMRs, on the original scale.

[2] = TIM-1 dynamic in vitro gastrointestinal model, bioaccessibility of 75 mg encorafenib capsule; assay type: in vitro ADME; settings: for time of maximum bioaccessibility / maximum bioaccessibility / total bioaccessibility (cumulative): TIM-1, 75 mg capsule; for maximum bioaccessibility / total bioaccessibility (cumulative): mean ± SD
Text: To investigate the bioaccessibility under the different test conditions (i.e., in the fasted state, fed state, and with the use of a PPI), a dynamic in vitro GI model TIM-1 (TNO; Zeist, Netherlands) was used, which has previously been described and detailed pictorially.[25],[26] The bioaccessibility of the drug refers to the amount of drug available for drug absorption. The two filters, which are located at the end of the jejunal and ileal compartment, will capture the dissolved fraction of drug as released from the drug formulation with the help of a filtration process. The dissolved fraction of drug is the sum of drug molecules dissolved in the aqueous media (i.e., molecularly dissolved and encapsulated in the colloidal structures such as micelles). The TIM-1 model is a complex in vitro GI simulator that models the dynamic processes and conditions present in the lumen of the gastric and small intestinal regions of the GI tract. The TIM-1 system consists of a stomach, duodenum, jejunum, and ileum compartment. For more information about the setup of the TIM-1 model, the reader is referred to external literature.[27] After dosing the drug product to the stomach compartment, the computer-controlled system controls the transit of the drug formulation to the intestinal compartments at a rate that reflects the in vivo transit conditions observed in fasted, fed, and PPI states. At the end of the jejunal and ileal compartments, a lipid filtration system is installed to separate the dissolved amount of drug from these compartments and evaluate the amount of drug available for drug absorption (i.e., the bioaccessible fraction of drug). The TIM-1 model is programmed to evaluate drug product behavior in fasted, fed, and PPI conditions.[19],[28],[29] Depending on the chosen clinical condition (PPI, fed), specific experimental protocol is executed. Fasted state is simulated by implementing a predefined pH curve controlled by secretion of 1 M HCl into the gastric compartment. The gastric pH starts at pH 3 (including the coadministered glass of water) and will decrease to pH 1.7 as gastric secretion will acidify the gastric content. When the fasted PPI state is simulated, gastric content is adjusted to pH 4.5, and only water is secreted into the stomach compartment to maintain constant pH. During fed state studies, gastric pH starts at pH 6.5 and will decrease to basic fasted conditions (pH 1.7) as the food empties the stomach, and gastric secretion will be activated. Due to secretion and transit, the volumes and pH remain constant in the intestinal compartments. […] For more information about the TIM-1 settings and the determination of bioaccessible fraction, the reader is referred to external literature.[27],[28] The bioaccessible fraction was determined by withdrawing samples from the filtrate (at the end of the jejunum and ileum compartment) and these samples were, subsequently, analyzed by HPLC. The expression of the bioaccessible fraction can be depicted in a cumulative or noncumulative order to observe how much drug will become available as a function of time. […]

[3] = set-up: method as in PMID 27693678; settings: estimated using PKPlus module, cited from earlier work
CYP2C19 = system: CYP2C19; set-up: method as in PMID 27693678; settings: fitted using in vivo data; cited from earlier work
CYP3A4 = system: CYP3A4; set-up: method as in PMID 27693678; settings: fitted using in vivo data; cited from earlier work
CYP2D6 = settings: cited from earlier work
[4] = human, plasma, po, 100 mg, study 1, 100 mg single oral dose, fasted
[5] = human, plasma, po, 100 mg, study 1, 100 mg single oral dose, fed
[6] = study 1, 100 mg single oral dose, fasted
[7] = study 1, 100 mg single oral dose, fed

- time of maximum bioaccessibility ([2]; PPI): 1.5 h
- maximum bioaccessibility ([2]; PPI): 18% and 18 ± 4%
- total bioaccessibility (cumulative) ([2]; PPI): 83% and 83 ± 6%
- time of maximum bioaccessibility ([2]; fasted): 1.5 h
- maximum bioaccessibility ([2]; fasted): 16% and 16 ± 4%
- total bioaccessibility (cumulative) ([2]; fasted): 77% and 77 ± 4%
- time of maximum bioaccessibility ([2]; fed): 4 h
- maximum bioaccessibility ([2]; fed): 13% and 13 ± 0%
- total bioaccessibility (cumulative) ([2]; fed): 80% and 80 ± 1%
- bioaccessible fraction ([2]; TIM-1, in the 3 conditions (fasted, fed, PPI)): ≥ 80%
SMILES: COC(=O)N[C@@H](C)CNc1nccc(-c2cn(C(C)C)nc2-c2cc(Cl)cc(NS(C)(=O)=O)c2F)n1 [encorafenib, Encorafenib]
- AUC(0-inf) [1, 4]: 3120 ng·h/mL
- AUC(0-t) [1, 4]: 3130 ng·h/mL
- Cmax [1, 4]: 962 ng/mL
- half-life [1, 4]: 4.79 ± 3.79 h
- Vd/F [1, 4]: 226 ± 207 L
- Tmax ([1]; human, plasma, po, 100 mg, study 1, 100 mg single oral dose, fasted, read-out: Tmax): 1.5 h
- AUC(0-t) [1, 5]: 3020 ng·h/mL
- Cmax [1, 5]: 621 ng/mL
- half-life [1, 5]: 5.61 ± 3.69 h
- Vd/F [1, 5]: 262 ± 163 L
- Tmax ([1]; human, plasma, po, 100 mg, study 1, 100 mg single oral dose, fed, read-out: Tmax): 3.5 h
- AUC(0-inf) ([1]; human, plasma, po, 100 mg, study 1, encorafenib 100 mg single oral dose, fed (high-fat meal)): 3030 ng·h/mL
- tolerability ([1]; single oral dose of 100 mg, healthy participants): tolerated
- changes in vital signs, laboratory values, or ECG measurements ([1]; study 1): No clinically significant changes
- participants reporting headache ([1]; study 1): 73%
- participants who discontinued due to an AE related to encorafenib ([1]; study 1): 2 participants
- severity of AEs ([1]; study 1): all mild in severity
- CL/F [1, 6]: 34.64 ± 14.209 L/h
- Tmax [1, 6]: 1.495 (0.997, 3.49) h
- CL/F [1, 7]: 35.13 ± 12.535 L/h
- Tmax [1, 7]: 3.499 (2.00, 5.00) h
- delay of median Tmax under fed conditions ([1]; study 1, fed vs fasted): 2 h
- Cmax lower in fed state than fasted ([1]; study 1, fed vs fasted, 100 mg): 36%
- decrease in AUCinf with a high-fat meal ([1]; study 1, fed vs fasted, 100 mg): 4%
- decrease in AUClast with a high-fat meal ([1]; study 1, fed vs fasted, 100 mg): 4%
- participants reporting AEs ([1]; study 1, following encorafenib in the fasted state): 79%
- participants reporting AEs ([1]; study 1, following encorafenib in the fed state): 92%
- participants reporting flushing ([1]; study 1, most common AE): 83%
- participants who discontinued due to AEs ([1]; study 1, of 40 participants who entered): 6 participants
- participants reporting AEs ([1]; study 1, overall): 95%
- clearance ([3]; 2-compartmental, 100 mg fasted): 16.08 L/h[31]
- K10 [3]: 0.197 h^–1[31]
- K12 [3]: 0.173 h^–1[31]
- K21 [3]: 0.016 h^–1[31]
- gut CYP2C19 Km (CYP2C19): 7.51 mg/L
- gut CYP2C19 Vmax (CYP2C19): 0.00504 mg/s
- liver CYP2C19 Km (CYP2C19): 7.51 mg/L
- liver CYP2C19 Vmax (CYP2C19): 0.00504 mg/s
- gut CYP3A4 Km (CYP3A4): 213.9 mg/L
- gut CYP3A4 Vmax (CYP3A4): 0.0945 mg/s
- liver CYP3A4 Km (CYP3A4): 213.9 mg/L
- liver CYP3A4 Vmax (CYP3A4): 0.0945 mg/s
- share of metabolism by CYP2D6 (CYP2D6): 1%
